Consider six molecules from patent US5206234A, “Benzolactam analogs as antagonists of CCK” (priority 1991, dated 1993).

One test concerns CCK-B receptors. The settings on record: cited from earlier work.
In a further test the test system is CCK-A receptors. The settings on record: cited from earlier work.
In another test the target is T1, CCK receptor (Pancreas) (Rattus norvegicus, UniProt P30551).
T1 construct: The whole pancreas was dissected free of fat tissue and was homogenized; from tissue; host or cells: pancreas membranes of male Sprague-Dawley rats
T1 sequence (P30551 1-444): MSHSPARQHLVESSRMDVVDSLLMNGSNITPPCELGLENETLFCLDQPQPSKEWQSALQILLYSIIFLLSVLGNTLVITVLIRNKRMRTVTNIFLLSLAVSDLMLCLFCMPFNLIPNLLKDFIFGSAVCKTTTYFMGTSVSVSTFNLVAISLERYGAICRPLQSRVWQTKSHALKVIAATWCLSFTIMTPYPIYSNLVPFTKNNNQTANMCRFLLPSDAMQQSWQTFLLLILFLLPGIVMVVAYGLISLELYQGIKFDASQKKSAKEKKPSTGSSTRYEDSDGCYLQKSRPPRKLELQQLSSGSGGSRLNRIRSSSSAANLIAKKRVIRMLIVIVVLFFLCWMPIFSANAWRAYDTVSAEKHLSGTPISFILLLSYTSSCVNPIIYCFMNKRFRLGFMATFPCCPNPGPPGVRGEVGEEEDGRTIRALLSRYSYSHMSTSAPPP
Description: CCK Receptor Binding (Pancreas), inhibition of 125I-CCK-33 binding. Also on record: species or system rat (Male Sprague-Dawley). The settings on record: 125I-CCK-33, rat pancreas membranes. The protocol:
CCK-33 was radiolabeled with ^125 I-Bolton Hunter reagent (2000 Ci/mmole) as described by Sankara et al. (J. Biol. Chem. 254: 9349-9351, 1979). Receptor binding was performed according to Innis and Snyder (Proc. Natl. Acad. Sci. 77, 6917-6921, 1980) with the minor modification of adding the additional protease inhibitors, phenylmethane sulfonyl fluoride and o-phenanthroline. The latter two compounds have no effect on the ^125 I-CCK receptor binding assay.
Male Sprague-Dawley rats (200-350 g) were sacrificed by decapitation. The whole pancreas was dissected free of fat tissue and was homogenized in 20 volumes of ice-cold 50 mM Tris HCl (pH 7.7 at 25° C.) with a Brinkmann Polytron PT 10. The homogenates were centrifuged at 48,000 g for 10 min. Pellets were resuspended in Tris Buffer, centrifuged as above and resuspended in 200 volumes of binding assay buffer (50 mM Tris HCl, pH 7.7 at 25° C., 5 mM dithiothrietol, 0.1 mM bacitracin, 1.2 mM phenylmethane sulfonyl fluoride and 0.5 mM o-phenanthroline). […] All assays were run in duplicate or triplicate. The reaction mixtures were incubated at 37° C. for 30 minutes and centrifuged in a Beckman Microfuge (4 minutes) immediately after adding 1 ml of ice-cold incubation buffer. The supernatant was aspirated and discarded, pellets were counted with a Beckman gamma 5000. For Scatchard analysis (Ann. N.Y. Acad. Sci. 51: 660, 1949), ^125 I-CCK-33 was progressively diluted with increasing concentrations of CCK-33.
A Ki value (dissociation constant of inhibitor) of the compounds of Formula I was estimated.

Test [1] has as its target T2, CCK receptor (Brain, cerebral cortex) (Cavia porcellus, UniProt H0VZC5).
T2 construct: Cerebral cortex was dissected and used as a receptor source; from tissue; host or cells: cerebral cortex membranes of male Hartley guinea pigs
T2 sequence (H0VZC5 1-426): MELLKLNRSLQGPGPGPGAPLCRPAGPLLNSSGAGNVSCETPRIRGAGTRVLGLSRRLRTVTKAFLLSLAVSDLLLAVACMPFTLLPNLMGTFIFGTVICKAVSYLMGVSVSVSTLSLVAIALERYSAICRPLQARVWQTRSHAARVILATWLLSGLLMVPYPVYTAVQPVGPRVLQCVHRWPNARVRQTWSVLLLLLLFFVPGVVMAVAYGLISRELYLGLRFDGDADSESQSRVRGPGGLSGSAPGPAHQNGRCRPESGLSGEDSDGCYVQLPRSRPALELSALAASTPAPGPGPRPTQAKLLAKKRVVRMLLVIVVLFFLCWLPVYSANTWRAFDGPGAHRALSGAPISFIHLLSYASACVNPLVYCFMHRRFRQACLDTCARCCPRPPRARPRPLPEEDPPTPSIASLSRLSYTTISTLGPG
Description: CCK Receptor Binding (Brain), inhibition of 125I-CCK-33 binding. The settings on record: head prints ^25 I-CCK; guinea pig cerebral cortex. Also on record: species or system guinea pig (Male Hartley). The protocol: CCK-33 was radiolabeled and the binding was performed according to the description for the pancreas method with modifications according to Saito et al., J. Neurochem. 37:483-490, 1981.
Male Hartley guinea pigs (300-500 g) were sacrificed by decapitation and the brains were removed and placed in ice-cold 50 mM Tris HCl plus 7.58 g/l Trizma-7.4 (pH 7.4 at 25° C.). Cerebral cortex was dissected and used as a receptor source. Each gram of fresh guinea pig brain tissue was homogenized in 10 ml of Tris/Trizma buffer with a Brinkman polytron PT-10. The homogenates were centrifuged at 42,000 g for 15 minutes. Pellets were resuspended in Tris Buffer, centrifuged as above and resuspended in 200 volumes of binding assay buffer (10 mM N-2-hydroxyethyl-piperazine-N'-2-ethane sulfonic acid (HEPES), 5 mM MgCl2, 0.25 mg/ml bacitracin, 1 mM ethylene glycol-bis-(β-aminoethylether-N,N'-tetraacetic acid) (EGTA), and 0.4% bovine serum albumin (BSA)). […] All assays were run in duplicate or triplicate. The reaction mixtures were incubated at 25° C. for 2 hours and centrifuged in a Beckman Microfuge (4 minutes) immediately after adding 1 ml of ice-cold incubation buffer. The supernatant was aspirated and discarded, pellets were counted with a Beckman gamma 5000.

For test [2], the target named is T3, Gastrin receptor (Gastric Glands) (Cavia porcellus, UniProt H0VZC5).
T3 construct: from tissue; host or cells: gastric mucosal glands of male Hartley guinea pigs
T3 sequence (H0VZC5 1-426): T2 sequence (H0VZC5 1-426)
The test can be described thus: Gastrin Receptor Binding in Guinea Pig Gastric Glands. The arrangement: species or system guinea pig (male Hartley). The settings on record: head prints ^25 I-Gastrin, read-out: Receptor binding IC50, 125I-Gastrin Gastric Glands. The protocol: Guinea pig gastric mucosal glands were prepared by the procedure of Berglingh and Obrink Acta Physiol. Scand. 96: 150 (1976) with a slight modification according to Praissman et al. C. J. Receptor Res. 3: (1983). Gastric mucosa from guinea pigs (300-500 g body weight, male Hartley) were washed thoroughly and minced with fine scissors in standard buffer consisting of the following: 130 mM NaCl, 12 mM NaHCO3, 3 mM NaH2 PO4, 3 mM Na2 HPO4, 3 mM K2 HPO4, 2 mM MgSO4, 1 mM CaCl2, 5 mM glucose and 4 mM L-glutamine, 25 mM HEPES at pH 7.4. The minced tissues were washed and then incubated in a 37° C. shaker bath for 40 minutes with the buffer containing 0.1% collagenase and 0.1% BSA and bubbled with 95% O2 and 5% CO2. The tissues were passed twice through a 5 ml glass syringe to liberate the gastric glands, and then filtered through 200 mesh nylon. The filtered glands were centrifuged at 270 g for 5 minutes and washed twice by resuspension and centrifugation.
The washed guinea pig gastric glands prepared as above were resuspended in 25 ml of standard buffer containing 0.25 mg/ml of bacitracin. For binding studies, to 220 μl of gastric glands in triplicate tubes, 10 μl of buffer (for total binding) or gastrin (1 μM final concentration, for nonspecific binding) or test compound and 10 μl of ^125 I-gastrin (NEN, 2200 Ci/mmole, 25 pM final) or ^3 H-pentagastrin (NEN 22 Ci/mmole, 1 nM final) were added. The tubes were aerated with 95% O2 and 5% CO2 and capped. The reaction mixtures after incubation at 25° C. for 30 minutes were filtered under reduced pressure on glass G/F B filters (Whatman) and immediately washed further with 4×4 ml of standard buffer containing 0.1% BSA. The radioactivity on the filters was measured using a Beckman gamma 5500 for ^125 I-gastrin or liquid scintillation counting for ^3 H-pentagastrin.

In the case of `CSCC[C@H](NC(=O)[C@H](Cc1c[nH]c2ccccc12)NC(=O)CCNC(=O)OC(C)(C)C)C(=O)N[C@@H](CC(=O)O)C(=O)N[C@@H](Cc1ccccc1)C(N)=O` [pentagastrin], in the test on CCK-B receptors, the “Affinity for CCK-B receptors” value is recorded as “high affinity”.

Turning to “gastrin: structurally related neuropeptides which exist in gastrointestinal tissue and in the central nervous system”, the “Affinity for CCK-A receptors” value in the test on CCK-A receptors is on record as “lower affinity”.

Turning to `CC(C)(C)OC(=O)CN1C(=O)C(NC(=O)Nc2ccc(Cl)cc2)CCc2ccccc21` (stereo not drawn) [Example 1, 1,1-Dimethylethyl 3-{[[(4-chlorophenyl)amino]carbonyl]amino}-2,3,4,5-tetrahydro-2-oxo-1H-1-benzazepine-1-acetic acid ester], the IC50 on CCK receptor (Pancreas) amounted to 350 nM; in test [1], 180 nM; in test [2], 120 nM.

For the molecule `CSCC[C@H](NC(=O)[C@H](Cc1ccc(O)cc1)NC(=O)[C@@H](N)CC(=O)O)C(=O)NCC(=O)N[C@@H](Cc1c[nH]c2ccccc12)C(=O)N[C@@H](CCSC)C(=O)N[C@@H](CC(=O)O)C(=O)N[C@@H](Cc1ccccc1)C(N)=O` [CCK-8d], the “Affinity for CCK-A receptors” value with CCK-A receptors is reported as “lower affinity”.

With `CC(C)(C)OC(=O)CN1C(=O)C(NC(=O)Nc2cccc3ccccc23)CCc2ccccc21` (stereo not drawn) [Example 8], the figures for the half-maximal inhibitory concentration (IC50) (on CCK receptor (Pancreas); in test [1]; in test [2]) were 960 nM, 148 nM and 480 nM, respectively.

Regarding `Cc1cccc(NC(=O)NC2CCc3ccccc3N(CC(=O)N3CCN(C)CC3)C2=O)c1` (stereo not drawn) [Example 7, 1-Methyl-4-{[2,3,4,5-tetrahydro-3-{[[(3-methylphenyl)amino]carbonyl]amino}-2-oxo-1H-1-benzazepin-1-yl]aceyl}piperazine], the IC50 at CCK receptor (Pancreas) was determined as 970 nM; in test [1], 5000 nM; in test [2], 610 nM.

As a reminder, the IC50 is the concentration at which inhibition is half-maximal.
